{
  "source": "paper PMC10879502",
  "about": "“Linking ATP and allosteric sites to achieve superadditive binding with bivalent EGFR kinase inhibitors” (Communications Chemistry, 2024)",
  "key": {"[1]": {"molecular_target": "T1, WT EGFR kinase domain (Homo sapiens, UniProt P00533)", "T1 construct": "The EGFR kinase domain (residues 696–1022) was cloned into pTriEx; 6xHis (N, cleaved yes); GST (N, cleaved yes); made in house; host or cells: SF9 insect cells, baculovirus", "experiment": "HTRF KinEASE-TK kinase activity assay", "assay_type": "biochemical", "conditions": "enzyme 10 nM, ATP 100 µM; read-out: Biochemical EGFR IC50, WT"}, "[2]": {"molecular_target": "ADCK3 (Homo sapiens, UniProt Q8NI60)", "sequence (Q8NI60 163-647)": "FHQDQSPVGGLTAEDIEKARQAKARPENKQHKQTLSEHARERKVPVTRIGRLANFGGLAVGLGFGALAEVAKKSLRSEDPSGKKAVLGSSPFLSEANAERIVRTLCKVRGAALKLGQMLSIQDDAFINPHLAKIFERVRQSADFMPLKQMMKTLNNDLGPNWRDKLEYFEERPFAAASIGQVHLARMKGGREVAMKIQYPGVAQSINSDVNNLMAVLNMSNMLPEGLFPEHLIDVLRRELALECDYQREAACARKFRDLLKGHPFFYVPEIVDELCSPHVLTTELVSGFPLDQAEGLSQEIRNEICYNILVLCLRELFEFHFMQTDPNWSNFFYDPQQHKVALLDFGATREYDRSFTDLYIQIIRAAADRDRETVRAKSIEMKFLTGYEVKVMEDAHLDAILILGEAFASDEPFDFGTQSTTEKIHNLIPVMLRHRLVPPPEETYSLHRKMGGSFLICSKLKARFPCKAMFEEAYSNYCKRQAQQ", "experiment": "KINOMEscan", "assay_type": "binding", "conditions": "1 μM"}, "[3]": {"molecular_target": "BIKE (Homo sapiens, UniProt Q9NSY1)", "experiment": "KINOMEscan", "assay_type": "binding", "conditions": "1 μM"}, "[4]": {"molecular_target": "T2, BMX (Homo sapiens, UniProt P51813)", "T2 construct": "purchased Eurofins DiscoverX Corporation (KINOMEscan)", "experiment": "KINOMEscan", "assay_type": "binding", "conditions": "1 μM"}, "[5]": {"molecular_target": "T3, BRSK1 (Homo sapiens, UniProt Q8TDC3)", "T3 construct": "purchased Eurofins DiscoverX Corporation (KINOMEscan)", "experiment": "KINOMEscan", "assay_type": "binding", "conditions": "1 μM"}, "[6]": {"molecular_target": "T4, CAMK2B (Homo sapiens, UniProt Q13554)", "T4 construct": "purchased Eurofins DiscoverX Corporation (KINOMEscan)", "experiment": "KINOMEscan", "assay_type": "binding", "conditions": "1 μM"}, "[7]": {"molecular_target": "CDK7 (Homo sapiens, UniProt P50613)", "sequence (P50613 whole entry)": "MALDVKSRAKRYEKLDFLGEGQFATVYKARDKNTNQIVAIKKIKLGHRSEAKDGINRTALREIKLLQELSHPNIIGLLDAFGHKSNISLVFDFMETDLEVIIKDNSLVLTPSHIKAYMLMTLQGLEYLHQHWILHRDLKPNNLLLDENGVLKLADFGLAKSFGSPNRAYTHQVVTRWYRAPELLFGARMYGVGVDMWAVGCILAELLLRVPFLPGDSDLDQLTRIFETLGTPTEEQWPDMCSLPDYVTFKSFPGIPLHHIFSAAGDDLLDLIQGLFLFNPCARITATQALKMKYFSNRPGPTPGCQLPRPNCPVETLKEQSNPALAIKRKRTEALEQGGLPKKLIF", "experiment": "KINOMEscan", "assay_type": "binding", "conditions": "1 μM"}, "[8]": {"molecular_target": "CDKL1 (Homo sapiens, UniProt Q00532)", "sequence (Q00532 whole entry)": "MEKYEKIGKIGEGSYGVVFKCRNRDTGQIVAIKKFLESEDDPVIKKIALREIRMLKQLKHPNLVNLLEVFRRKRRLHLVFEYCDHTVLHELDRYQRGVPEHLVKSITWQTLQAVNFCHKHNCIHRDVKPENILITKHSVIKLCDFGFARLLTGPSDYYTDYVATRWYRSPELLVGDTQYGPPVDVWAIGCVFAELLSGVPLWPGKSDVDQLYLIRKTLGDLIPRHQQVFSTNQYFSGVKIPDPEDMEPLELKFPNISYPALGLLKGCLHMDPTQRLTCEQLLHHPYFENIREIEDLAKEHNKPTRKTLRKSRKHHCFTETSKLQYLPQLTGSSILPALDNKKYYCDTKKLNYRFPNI", "experiment": "KINOMEscan", "assay_type": "binding", "conditions": "1 μM"}, "[9]": {"molecular_target": "CDKL2 (Homo sapiens, UniProt Q92772)", "experiment": "KINOMEscan", "assay_type": "binding", "conditions": "1 μM"}, "[10]": {"molecular_target": "CSF1R (Homo sapiens, UniProt P07333)", "experiment": "KINOMEscan", "assay_type": "binding", "conditions": "1 μM"}, "[11]": {"molecular_target": "T5, DAPK3 (Homo sapiens, UniProt O43293)", "T5 construct": "purchased Eurofins DiscoverX Corporation", "experiment": "KINOMEscan", "assay_type": "binding", "conditions": "1 μM"}, "[12]": {"molecular_target": "T6, DCAMKL2 (Homo sapiens, UniProt Q8N568)", "T6 construct": "purchased Eurofins DiscoverX Corporation", "experiment": "KINOMEscan", "assay_type": "binding", "conditions": "1 μM"}, "[13]": {"molecular_target": "T7, DDR2 (Homo sapiens, UniProt Q16832)", "T7 construct": "purchased Eurofins DiscoverX Corporation", "T7 sequence (Q16832 22-855)": "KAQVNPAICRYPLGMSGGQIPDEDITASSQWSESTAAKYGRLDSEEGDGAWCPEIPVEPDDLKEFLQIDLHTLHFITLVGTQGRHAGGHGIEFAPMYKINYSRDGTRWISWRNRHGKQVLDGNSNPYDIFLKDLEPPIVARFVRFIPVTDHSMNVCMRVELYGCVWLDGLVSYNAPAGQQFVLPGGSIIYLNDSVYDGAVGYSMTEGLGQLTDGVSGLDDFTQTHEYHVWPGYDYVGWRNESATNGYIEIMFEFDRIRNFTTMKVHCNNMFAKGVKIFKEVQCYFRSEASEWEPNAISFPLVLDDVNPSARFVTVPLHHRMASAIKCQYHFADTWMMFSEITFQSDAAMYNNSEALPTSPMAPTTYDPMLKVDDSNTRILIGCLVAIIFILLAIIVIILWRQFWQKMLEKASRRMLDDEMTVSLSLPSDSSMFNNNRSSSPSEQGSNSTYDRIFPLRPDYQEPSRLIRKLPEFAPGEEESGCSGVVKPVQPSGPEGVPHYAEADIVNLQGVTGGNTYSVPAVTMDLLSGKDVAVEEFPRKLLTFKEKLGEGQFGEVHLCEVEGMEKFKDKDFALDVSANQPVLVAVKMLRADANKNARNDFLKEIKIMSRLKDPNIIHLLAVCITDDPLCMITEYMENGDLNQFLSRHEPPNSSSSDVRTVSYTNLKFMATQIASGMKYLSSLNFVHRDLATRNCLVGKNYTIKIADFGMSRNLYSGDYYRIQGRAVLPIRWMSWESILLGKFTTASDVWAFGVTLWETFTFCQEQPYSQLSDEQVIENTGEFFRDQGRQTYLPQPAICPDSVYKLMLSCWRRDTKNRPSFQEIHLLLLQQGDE", "experiment": "KINOMEscan", "assay_type": "binding", "conditions": "1 μM"}, "[14]": {"molecular_target": "EGFR (Homo sapiens, UniProt P00533)", "experiment": "KINOMEscan", "assay_type": "binding", "conditions": "1 μM"}, "[15]": {"molecular_target": "FGFR3 (Homo sapiens, UniProt P22607)", "sequence (P22607 23-806)": "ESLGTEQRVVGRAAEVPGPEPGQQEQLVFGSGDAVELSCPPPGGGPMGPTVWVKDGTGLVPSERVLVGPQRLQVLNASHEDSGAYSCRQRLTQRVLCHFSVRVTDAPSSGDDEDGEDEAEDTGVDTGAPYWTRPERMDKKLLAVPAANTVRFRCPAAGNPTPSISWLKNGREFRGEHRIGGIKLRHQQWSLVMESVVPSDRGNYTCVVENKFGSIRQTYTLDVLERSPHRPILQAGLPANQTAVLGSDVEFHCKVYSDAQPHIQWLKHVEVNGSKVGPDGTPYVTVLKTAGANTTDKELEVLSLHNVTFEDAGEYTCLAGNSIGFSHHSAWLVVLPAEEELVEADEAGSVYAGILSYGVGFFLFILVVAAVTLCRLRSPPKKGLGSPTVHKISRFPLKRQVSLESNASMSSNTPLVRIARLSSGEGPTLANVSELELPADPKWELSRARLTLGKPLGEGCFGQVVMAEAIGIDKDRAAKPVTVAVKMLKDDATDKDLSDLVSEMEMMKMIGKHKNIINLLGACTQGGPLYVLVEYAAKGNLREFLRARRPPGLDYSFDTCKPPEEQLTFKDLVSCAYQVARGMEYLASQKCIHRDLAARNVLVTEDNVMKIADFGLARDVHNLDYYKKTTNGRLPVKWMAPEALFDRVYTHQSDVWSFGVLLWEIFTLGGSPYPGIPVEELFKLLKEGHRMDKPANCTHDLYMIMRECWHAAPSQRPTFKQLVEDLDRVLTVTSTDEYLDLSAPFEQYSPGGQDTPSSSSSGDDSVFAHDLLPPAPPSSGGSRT", "experiment": "KINOMEscan", "assay_type": "binding", "conditions": "1 μM"}, "[16]": {"tested_on": "FLT3(ITD+D835V)", "experiment": "KINOMEscan", "assay_type": "binding", "conditions": "1 μM"}, "[17]": {"molecular_target": "T8, FYN (Homo sapiens, UniProt P06241)", "T8 construct": "purchased Eurofins DiscoverX Corporation", "experiment": "KINOMEscan", "assay_type": "binding", "conditions": "1 μM"}, "[18]": {"molecular_target": "T9, IKK-epsilon (Homo sapiens, UniProt Q14164)", "T9 construct": "purchased Eurofins DiscoverX (KINOMEscan)", "experiment": "KINOMEscan", "assay_type": "binding", "conditions": "1 μM"}, "[19]": {"molecular_target": "T10, IRAK3 (Homo sapiens, UniProt Q9Y616)", "T10 construct": "purchased Eurofins DiscoverX (KINOMEscan)", "experiment": "KINOMEscan", "assay_type": "binding", "conditions": "1 μM"}, "[20]": {"molecular_target": "T11, JAK1(JH2domain-pseudokinase) (Homo sapiens, UniProt P23458)", "T11 construct": "JAK1(JH2domain-pseudokinase); purchased Eurofins DiscoverX (KINOMEscan)", "T11 sequence (P23458 583-855 limits assumed)": "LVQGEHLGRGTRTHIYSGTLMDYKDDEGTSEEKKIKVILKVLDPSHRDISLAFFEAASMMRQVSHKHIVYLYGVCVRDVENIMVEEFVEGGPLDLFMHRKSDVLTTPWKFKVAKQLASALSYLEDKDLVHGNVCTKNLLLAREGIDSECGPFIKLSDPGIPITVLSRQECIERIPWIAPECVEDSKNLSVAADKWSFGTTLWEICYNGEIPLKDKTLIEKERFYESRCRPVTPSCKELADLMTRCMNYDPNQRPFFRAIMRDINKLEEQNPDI", "experiment": "KINOMEscan", "assay_type": "binding", "conditions": "1 μM"}, "[21]": {"molecular_target": "T12, MAP4K2 (Homo sapiens, UniProt Q12851)", "T12 construct": "purchased Eurofins DiscoverX Corporation", "experiment": "KINOMEscan", "assay_type": "binding", "conditions": "1 μM"}, "[22]": {"molecular_target": "T13, MAST1 (Homo sapiens, UniProt Q9Y2H9)", "T13 construct": "purchased Eurofins DiscoverX Corporation", "experiment": "KINOMEscan", "assay_type": "binding", "conditions": "1 μM"}, "[23]": {"molecular_target": "T14, MST4 (Homo sapiens, UniProt Q9P289)", "T14 construct": "purchased Eurofins DiscoverX Corporation", "experiment": "KINOMEscan", "assay_type": "binding", "conditions": "1 μM"}, "[24]": {"molecular_target": "T15, MUSK (Homo sapiens, UniProt O15146)", "T15 construct": "purchased Eurofins DiscoverX Corporation", "experiment": "KINOMEscan", "assay_type": "binding", "conditions": "1 μM"}, "[25]": {"molecular_target": "T16, NDR1 (Homo sapiens, UniProt Q15208)", "T16 construct": "purchased Eurofins DiscoverX Corporation", "experiment": "KINOMEscan", "assay_type": "binding", "conditions": "1 μM"}, "[26]": {"molecular_target": "PAK6 (Homo sapiens, UniProt Q9NQU5)", "experiment": "KINOMEscan", "assay_type": "binding", "conditions": "1 μM"}, "[27]": {"molecular_target": "PCTK3 (Homo sapiens, UniProt Q07002)", "experiment": "KINOMEscan", "assay_type": "binding", "conditions": "1 μM"}, "[28]": {"molecular_target": "PHKG2 (Homo sapiens, UniProt P15735)", "experiment": "KINOMEscan", "assay_type": "binding", "conditions": "1 μM"}, "[29]": {"molecular_target": "PIK3CB (Homo sapiens, UniProt P42338)", "experiment": "KINOMEscan", "assay_type": "binding", "conditions": "1 μM"}, "[30]": {"molecular_target": "PIM3 (Homo sapiens, UniProt Q86V86)", "experiment": "KINOMEscan", "assay_type": "binding", "conditions": "1 μM"}, "[31]": {"molecular_target": "PRKCE (Homo sapiens, UniProt Q02156)", "experiment": "KINOMEscan", "assay_type": "binding", "conditions": "1 μM"}, "[32]": {"molecular_target": "RET(M918T) (Homo sapiens, UniProt P07949, M918T)", "experiment": "KINOMEscan", "assay_type": "binding", "conditions": "1 μM"}, "[33]": {"molecular_target": "RSK1(Kin.Dom.2-C-terminal) (Homo sapiens, UniProt Q15418)", "experiment": "KINOMEscan", "assay_type": "binding", "conditions": "1 μM"}, "[34]": {"molecular_target": "SBK1 (Homo sapiens, UniProt Q52WX2)", "experiment": "KINOMEscan", "assay_type": "binding", "conditions": "1 μM"}, "[35]": {"molecular_target": "SRC (Homo sapiens, UniProt P12931)", "experiment": "KINOMEscan", "assay_type": "binding", "conditions": "1 μM"}, "[36]": {"molecular_target": "T17, TNNI3K (Homo sapiens, UniProt Q59H18)", "T17 construct": "purchased Eurofins DiscoverX Corporation", "T17 sequence (Q59H18 whole entry)": "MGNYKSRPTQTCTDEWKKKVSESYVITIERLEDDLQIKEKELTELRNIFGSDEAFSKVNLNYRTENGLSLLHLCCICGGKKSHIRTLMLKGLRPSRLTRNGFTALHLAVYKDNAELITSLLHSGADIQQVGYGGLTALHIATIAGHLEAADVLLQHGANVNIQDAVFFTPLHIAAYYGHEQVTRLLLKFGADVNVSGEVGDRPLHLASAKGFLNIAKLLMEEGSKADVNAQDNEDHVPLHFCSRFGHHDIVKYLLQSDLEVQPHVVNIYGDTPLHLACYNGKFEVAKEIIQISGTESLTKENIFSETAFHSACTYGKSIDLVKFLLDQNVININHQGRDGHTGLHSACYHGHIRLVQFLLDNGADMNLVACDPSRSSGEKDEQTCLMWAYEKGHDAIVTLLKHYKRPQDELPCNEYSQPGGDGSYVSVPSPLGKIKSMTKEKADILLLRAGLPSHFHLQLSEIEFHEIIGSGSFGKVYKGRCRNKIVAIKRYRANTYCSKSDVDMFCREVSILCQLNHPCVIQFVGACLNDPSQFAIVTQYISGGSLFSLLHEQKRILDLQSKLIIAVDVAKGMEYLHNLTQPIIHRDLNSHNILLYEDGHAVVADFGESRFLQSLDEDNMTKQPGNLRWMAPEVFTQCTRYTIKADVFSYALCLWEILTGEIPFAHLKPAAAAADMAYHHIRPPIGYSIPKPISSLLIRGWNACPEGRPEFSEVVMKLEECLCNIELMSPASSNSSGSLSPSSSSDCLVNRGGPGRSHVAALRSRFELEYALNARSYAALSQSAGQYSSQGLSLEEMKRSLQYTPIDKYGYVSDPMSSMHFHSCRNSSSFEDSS", "experiment": "KINOMEscan", "assay_type": "binding", "conditions": "1 μM"}, "[37]": {"molecular_target": "T18, TRKC (Homo sapiens, UniProt Q16288)", "T18 construct": "purchased Eurofins DiscoverX Corporation", "experiment": "KINOMEscan", "assay_type": "binding", "conditions": "1 μM"}, "[38]": {"molecular_target": "T19, TSSK3 (Homo sapiens, UniProt Q96PN8)", "T19 construct": "purchased Eurofins DiscoverX Corporation", "experiment": "KINOMEscan", "assay_type": "binding", "conditions": "1 μM"}, "[39]": {"molecular_target": "ULK2 (Homo sapiens, UniProt Q8IYT8)", "sequence (Q8IYT8 whole entry)": "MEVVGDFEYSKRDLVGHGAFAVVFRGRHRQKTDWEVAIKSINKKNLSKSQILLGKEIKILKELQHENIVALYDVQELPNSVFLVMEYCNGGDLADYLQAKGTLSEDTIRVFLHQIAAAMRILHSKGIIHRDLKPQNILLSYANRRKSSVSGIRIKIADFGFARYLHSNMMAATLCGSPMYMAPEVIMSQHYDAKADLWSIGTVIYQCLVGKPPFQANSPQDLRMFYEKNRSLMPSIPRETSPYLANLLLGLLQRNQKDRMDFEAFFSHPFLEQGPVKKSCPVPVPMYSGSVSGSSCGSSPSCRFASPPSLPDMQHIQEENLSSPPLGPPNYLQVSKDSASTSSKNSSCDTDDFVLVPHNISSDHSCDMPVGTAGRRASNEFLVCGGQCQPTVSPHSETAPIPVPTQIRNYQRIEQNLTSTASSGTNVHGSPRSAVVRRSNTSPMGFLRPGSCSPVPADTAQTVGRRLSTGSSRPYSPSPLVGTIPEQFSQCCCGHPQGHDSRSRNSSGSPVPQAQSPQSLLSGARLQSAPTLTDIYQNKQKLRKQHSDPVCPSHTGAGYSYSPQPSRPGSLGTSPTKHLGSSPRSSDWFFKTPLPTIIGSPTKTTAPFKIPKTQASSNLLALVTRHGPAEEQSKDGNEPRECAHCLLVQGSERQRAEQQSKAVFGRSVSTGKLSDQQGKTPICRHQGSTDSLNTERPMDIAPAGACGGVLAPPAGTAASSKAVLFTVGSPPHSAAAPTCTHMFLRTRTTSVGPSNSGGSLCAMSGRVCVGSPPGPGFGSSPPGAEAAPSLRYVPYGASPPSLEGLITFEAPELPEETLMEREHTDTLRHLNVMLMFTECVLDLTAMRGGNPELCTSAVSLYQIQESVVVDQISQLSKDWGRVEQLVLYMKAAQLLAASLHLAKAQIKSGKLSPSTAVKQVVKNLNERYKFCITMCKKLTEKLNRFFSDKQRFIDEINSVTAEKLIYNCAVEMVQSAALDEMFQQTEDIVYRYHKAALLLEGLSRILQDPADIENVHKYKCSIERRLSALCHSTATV", "experiment": "KINOMEscan", "assay_type": "binding", "conditions": "1 μM"}, "[40]": {"molecular_target": "WEE1 (Homo sapiens, UniProt P30291)", "experiment": "KINOMEscan", "assay_type": "binding", "conditions": "1 μM"}, "[41]": {"molecular_target": "YANK2 (Homo sapiens, UniProt Q9NY57)", "experiment": "KINOMEscan", "assay_type": "binding", "conditions": "1 μM"}},
  "data": [
    {"smiles": "CSc1nc(-c2cccc(NC(=O)c3cccc4c3NC(=O)c3ccccc3N4)c2)c(-c2ccnc(NC(C)=O)c2)[nH]1", "note": "[Compound 2]", "values": [
      {"measurement": "IC50", "setting": "[1]", "value": "< 10", "unit": "nM"}
    ]},
    {"smiles": "C=CC(=O)Nc1ccc(OC)c(Nc2cc(-c3[nH]c(CC)nc3-c3cccc(NC(=O)c4cccc5c4NC(=O)c4ccccc4N5)c3)ccn2)c1", "note": "[Compound 4]", "values": [
      {"measurement": "POC", "setting": "[2]", "value": "100% of control"},
      {"measurement": "POC", "setting": "[3]", "value": "100% of control"},
      {"measurement": "POC", "setting": "[4]", "value": "66% of control"},
      {"measurement": "POC", "setting": "[5]", "value": "100% of control"},
      {"measurement": "POC", "setting": "[6]", "value": "72% of control"},
      {"measurement": "POC", "setting": "[7]", "value": "49% of control"},
      {"measurement": "POC", "setting": "[8]", "value": "100% of control"},
      {"measurement": "POC", "setting": "[9]", "value": "100% of control"},
      {"measurement": "POC", "setting": "[10]", "value": "100% of control"},
      {"measurement": "POC", "setting": "[11]", "value": "62% of control"},
      {"measurement": "POC", "setting": "[12]", "value": "100% of control"},
      {"measurement": "POC", "setting": "[13]", "value": "100% of control"},
      {"measurement": "POC", "setting": "[14]", "value": "17% of control"},
      {"measurement": "POC", "setting": "[15]", "value": "94% of control"},
      {"measurement": "POC", "setting": "[16]", "value": "100% of control"},
      {"measurement": "POC", "setting": "[17]", "value": "64% of control"},
      {"measurement": "POC", "setting": "[18]", "value": "100% of control"},
      {"measurement": "POC", "setting": "[19]", "value": "39% of control"},
      {"measurement": "POC", "setting": "[20]", "value": "83% of control"},
      {"measurement": "POC", "setting": "[21]", "value": "36% of control"},
      {"measurement": "POC", "setting": "[22]", "value": "100% of control"},
      {"measurement": "POC", "setting": "[23]", "value": "94% of control"},
      {"measurement": "POC", "setting": "[24]", "value": "100% of control"},
      {"measurement": "POC", "setting": "[25]", "value": "73% of control"},
      {"measurement": "POC", "setting": "[26]", "value": "93% of control"},
      {"measurement": "POC", "setting": "[27]", "value": "93% of control"},
      {"measurement": "POC", "setting": "[28]", "value": "73% of control"},
      {"measurement": "POC", "setting": "[29]", "value": "90% of control"},
      {"measurement": "POC", "setting": "[30]", "value": "100% of control"},
      {"measurement": "POC", "setting": "[31]", "value": "100% of control"},
      {"measurement": "POC", "setting": "[32]", "value": "99% of control"},
      {"measurement": "POC", "setting": "[33]", "value": "75% of control"},
      {"measurement": "POC", "setting": "[34]", "value": "84% of control"},
      {"measurement": "POC", "setting": "[35]", "value": "73% of control"},
      {"measurement": "POC", "setting": "[36]", "value": "89% of control"},
      {"measurement": "POC", "setting": "[37]", "value": "87% of control"},
      {"measurement": "POC", "setting": "[38]", "value": "100% of control"},
      {"measurement": "POC", "setting": "[39]", "value": "80% of control"},
      {"measurement": "POC", "setting": "[40]", "value": "85% of control"},
      {"measurement": "POC", "setting": "[41]", "value": "63% of control"}
    ]}
  ]
}
